Broadly, the bioavailability is dose-corrected exposure relative to a reference, in per cent. Broadly, the AUC(0-inf) is the area under the concentration-time curve extrapolated to infinity. As a reminder, the AUC(0-t) is the area under the concentration-time curve up to a stated or last time point. As a reminder, the Cmax is the highest concentration seen after dosing. As a reminder, the Tmax is the time from dosing to the highest level. A word on the IC50: it is the concentration that inhibits the measured activity by half.

We go through two compounds from patent publication US9840494B2, “Quinazoline derivative” (Tianjin Hemay Oncology Pharmaceutical Co., Ltd., priority 2013, dated 2017).

Series [1] is described as follows: Bioavailability assay, Experiment III (free base). The format is in vivo. As to conditions: Wistar rats. The protocol:
Experiment III. Bioavailability Assay for N-[4-(3-chloro-4-fluorophenylamino)-7-(2-methoxyethoxy)quinazolin-6-yl]-2-[1-(2-methoxyethyl)piperidin-4-ylidene]acetamide
8 Wistar rats (male, weighing 160-190 g) were purchased from Laboratory Animal Center, Chinese PLA Academy of Military Medical Sciences. License No.: SCXK (Army) 2012-0004; Certificate No.: 0037074.
1) the compound was precisely weighed in a 10 ml glass tube;
2) The volume of DMSO was 2% of the total volume and DMSO was pipetted. The tip of the pipette was slowly rotated with being pressed against the inner wall of the centrifuge tube, and DMSO was pipetted in several times to dissolve the compound adsorbed on the wall of the centrifuge tube. After all the compound was transferred to the bottom portion of the centrifuge tube, the compound was dissolved by vortex and then placed in a water bath at 80° C.;
3) polyoxylethylene 35-castor oil of which the volume was 6% of the total volume was added and vortex;
4) sodium chloride solution for injection (0.9%) of which the volume was 92% of the total volume was added and vortexed to give a clear solution which will be used within 60 min
8 rats were fasted and ad libitum accessed to water for 12 h before administration. They were randomly divided into two groups, i.e. four rats per group, and were administered with the drug according to the administration scheme. Blood (about 0.5 ml) was drawn from the orbital venous plexus before dosing and at 5 min, 0.5 h, 1 h, 2 h, 3 h, 4 h, 5 h, 6 h and 8 h after dosing, and put into a heparinized centrifuge tube and centrifuged at 8000 r/min for 10 min 100 μl of the plasma was recovered, and 200 μl of 0.2% acetic acid in methanol (containing an internal standard (irbesartan, 20 ng/ml)) was added thereto to precipitate protein, vortexed for 2 min and centrifuged at 13000 r/min for 10 min The supernatant was obtained, and 20 μl of the supernatant was injected for detection.
Chromatographic column: phenomenex Synergi Polar-RP (150×4.6 mm, 2.5 μm)
Flow rate: 1 ml/min; column temperature: 40° C.
Mobile phase: A phase: 5 mM aqueous solution of ammonium formate; B phase: methanol, and the gradient was as follows: […]
API3000 LC-MS/MS; ESI source; MRM positive ion scan mode; and the parameters were as follows:
The main pharmacokinetic parameters and oral bioavailability results were calculated by using DAS2.0 (statistical moment).
Method for the calculation of bioavailability: F=(AUCig×Div)/(AUCiv×Dig)×100%
wherein D is dose; AUC: the area under the plasma drug concentration-time curve; ig represents intragastric administration; and iv represents intravenous injection administration.

Series [2] deals with human pancreatic cancer cell line AsPC-1. The series can be described thus: In vitro inhibitory action on human tumor cells, AsPC-1 (MTT). As to conditions: ASPC1, 72 h, MTT assay, usually 3 days. The class given is cell-based. The protocol:
Human epidermoid carcinoma cell line A431, human non-small cell lung cancer cell line HCC827, head and neck cancer cell lines Fadu and human pancreatic cancer cell line AsPC-1 were purchased from Cell Bank, Chinese Academy of Sciences.
3.2 Cell culture method: cells were cultured in the complete medium at 37° C. under 5% CO2 and saturated humidity until logarithmic growth phase, i.e., adherent cells substantially approach complete confluence, and then collected for subsequent assay. For the adherent cells, they were firstly digested with trypsin/EDTA to detach.
3.3 A certain number of cells were seeded into 96-well cell culture plates (hereinafter referred to as 96-well plates). […] Finally, total cellular protein in the wells was determined using SRB assay, or cell viability was determined with MTT assay.
3.3.1 The cell seeding concentration was determined by cell growth curve assay which completely simulates compound inhibition assay process. […]
3.4 Dilution and addition of compounds: the concentration of DMSO that can be tolerant by the cells was determined by DMSO tolerance assay, and thereby selecting the dilution and addition methods of compounds. The effects of different concentrations of DMSO on cell growth were determined by DMSO tolerance assay. […] Two methods are finally determined as follows. […]
For orientation: Tetrazolium assays rely on reduction of a dye to a coloured formazan, in cell work by metabolically active cells.

The mark [3] stands for this setting: 20 mg/kg intragastric gavage, preformulation.
Where [4] appears, read: 20 mg/kg tail intravenous injection, preformulation.
Setting [5] is: male, rat, plasma, po, 20 mg/kg intragastric gavage, preformulation.
[6] abbreviates: male, rat, plasma, 20 mg/kg tail intravenous injection, preformulation.

Regarding `COCCOc1cc2ncnc(Nc3ccc(F)c(Cl)c3)c2cc1NC(=O)C=C1CCN(CCOC)CC1` [Compound 1, N-[4-(3-chloro-4-fluorophenylamino)-7-(2-methoxyethoxy)quinazolin-6-yl]-2-[1-(2-methoxyethyl)piperidin-4-ylidene]acetamide], in series [1] (setting [3]), the CLz/F was 103 mL/min/kg and the t½z was determined as 4.59 h. In addition, in series [1] (setting [4]), the CLz stood at 24.7 mL/min/kg and the t½z was found to be 4.39 h. Besides, the bioavailability in series [1] (male, rat, plasma, oral, 20 mg/kg ig vs 20 mg/kg iv) was determined as 23.9%. Also, in series [1] (setting [5]), the AUC(0-inf) came to 3320 ng·h/mL, the AUC(0-t) was found to be 2190 ng·h/mL, the Cmax was found to be 416 ng/mL and the Tmax came out at 2.5 h. In addition, the Vd/F in series [1] (male, rat, plasma, po, 20 mg/kg intragastric gavage, preformulation, read-out: Vz/F) turned out to be 39.2 L/kg. Besides, in series [1] (setting [6]), the AUC(0-inf) is 13900 ng·h/mL, the AUC(0-t) is 11800 ng·h/mL, the Cmax turned out to be 13200 ng/mL and the Tmax was 0.083 h. For the same compound, the Vd in series [1] (male, rat, plasma, 20 mg/kg tail intravenous injection, preformulation, read-out: Vz) worked out at 9.55 L/kg.

Turning to `COCCOc1cc2ncnc(Nc3ccc(F)c(Cl)c3)c2cc1NC(=O)C=C1CCN(CCOC)CC1.CS(=O)(=O)O` [Compound 3, N-[4-(3-chloro-4-fluorophenylamino)-7-(2-methoxyethoxy)quinazolin-6-yl]-2-[1-(2-methoxyethyl)piperidin-4-ylidene]acetamide dimethylsulfonate], the IC50 in series [2] amounted to 4.3 µM.
